Reference: patent publication US11008340B2, “Modulators of ROR-gamma” (Vitae Pharmaceuticals, LLC, priority 2015, dated 2021)
Where two headings read alike, the source gives them in different places.

How the values were obtained:
[1] = molecular target: T1, recombinant RORγ Ligand Binding Domain (LBD) protein (Homo sapiens, UniProt P51449); test: Radio-Ligand RORγ Binding Assay (Assay 1); details: radio-ligand competition, 25-hydroxy [26,27-3H]-cholesterol, RORγ LBD; read-out: Avg ROR Bind Ki
T1 construct: 6×His; GST
T1 sequence (P51449 269-508 limits assumed): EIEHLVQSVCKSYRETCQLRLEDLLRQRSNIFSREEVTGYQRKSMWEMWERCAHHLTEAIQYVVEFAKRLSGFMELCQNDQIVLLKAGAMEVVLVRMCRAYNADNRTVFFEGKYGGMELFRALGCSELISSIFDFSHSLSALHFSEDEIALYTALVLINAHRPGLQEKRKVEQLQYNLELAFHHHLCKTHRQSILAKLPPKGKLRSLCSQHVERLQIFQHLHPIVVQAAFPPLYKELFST
Method: Radio-Ligand RORγ Binding Assay (Assay 1)
Compounds described herein were tested for ability to bind to RORγ in a cell-free competition assay with commercially available radio-ligand (RL), 25-hydroxy [26,27-^3H]-cholesterol (PerkinElmer, Cat. #NET674250UC), for a ligand binding site on a recombinant RORγ Ligand Binding Domain (LBD) protein expressed as a 6×His-Glutathione-S-Transferase (GST) fusion. The assay was performed in 96-well SPA plates (PerkinElmer, Cat. #1450-401) in 50 mM HEPES buffer, pH 7.4, containing 150 mM NaCl, 5 mM MgCl2, 10% (v/v) glycerol, 2 mM CHAPS, 0.5 mM 3-octylglucopyranoside and 5 mM DTT. Tested compounds were dissolved in DMSO, and semi-log (3.162×) serial dilutions of the compounds were prepared in the same solvent. Two μL of the DMSO solutions were mixed with 28 μL of 8.6 nM 25-hydroxy [26,27-^3H]-cholesterol and 50 μL of 24 nM RORγ LBD. The plate was shaken at 700 rpm for 20 min and incubated for 10 min at rt, after which 40 μL of poly-Lys YSi SPA beads (PerkinElmer, Cat. #RPNQ0010) were added to achieve 50 μg of the beads per well. The plate was incubated on an orbital shaker for 20 min and then for 10 min without agitation at rt. SPA signal for tritium beta radiation was registered on PerkinElmer Microbeta plate reader. […] The percent inhibition vs. concentration data were fit into a four-parameter model, and IC50 values were calculated from the fit as the concentrations corresponding to the inflection points on the dose-response curves. Inhibitory constants (Ki) were calculated using the following equation, where [RL] is the concentration in the assay and KD is a dissociation constant of 25-hydroxy [26,27-^3H]-cholesterol: […]

[2] = molecular target: T2, full-length RORγt in Jurkat cells (Homo sapiens, UniProt P51449); test: RORγt 5×RORE Assay in Jurkat Cells (Assay 2); type: cell-based; details: 5×RORE luciferase reporter
T2 construct: transcriptional activity of the full-length RORγt in Jurkat cells; host or cells: Jurkat cells (ATCC TIB-152)
T2 sequence (P51449 1-497 isoform P51449-2): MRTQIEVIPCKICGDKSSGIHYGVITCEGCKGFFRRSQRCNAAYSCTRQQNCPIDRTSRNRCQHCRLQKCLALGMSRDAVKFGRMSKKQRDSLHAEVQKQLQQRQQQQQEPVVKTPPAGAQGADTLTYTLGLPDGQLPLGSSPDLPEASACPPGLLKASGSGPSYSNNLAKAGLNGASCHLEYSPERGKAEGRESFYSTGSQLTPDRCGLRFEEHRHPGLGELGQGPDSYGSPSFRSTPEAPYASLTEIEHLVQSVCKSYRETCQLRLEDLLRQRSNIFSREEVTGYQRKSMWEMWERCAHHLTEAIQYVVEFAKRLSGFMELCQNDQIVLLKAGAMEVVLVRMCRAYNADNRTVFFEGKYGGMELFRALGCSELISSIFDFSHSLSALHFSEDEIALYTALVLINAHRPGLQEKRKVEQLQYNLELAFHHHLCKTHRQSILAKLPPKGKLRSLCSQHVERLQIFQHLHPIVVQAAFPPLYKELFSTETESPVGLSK
Method: [formula] RORγt 5×RORE Assay in Jurkat Cells (Assay 2)
Compounds described herein were tested for RORγ inverse agonist activity in a cell-based, transcriptional activity assay. Secreted Nanoluc″ luciferase was used as a reporter for transcriptional activity of the full-length RORγt in Jurkat cells (ATCC, Cat. #TIB-152). A reporter plasmid was constructed by inserting 5 repeats of the ROR Response Element (RORE) […] (SEQ ID NO: 1) into a commercially available promoterless plasmid pNL1.3[secNluc] (Promega, Cat. #N1021) using KpnI and HindIII restriction sites. The expression plasmid for RORγt was purchased (Geneocopoeia, Cat. #EX-T6988-M02). Jurkat cells (30 million cells) were transfected with 11 μg of EX-T6988-MO2 and 26 μg of the reporter plasmid in OptiMEM® media using Lipofectamine LTX and Plus™ reagents (Life Technologies, Cat. #15338-100). After 5-6 hrs of incubation at 37° C./5% CO2, the cells were collected, resuspended in phenol-red free RPMI media containing 10% (v/v) delipidated FBS (Hyclone, Cat. #SH30855.03) and dispensed into 96-well clear bottom tissue culture plates (CoStar, Cat. #3603), at 80,000 cells per well. Tested compounds were added to the cells in the same media (final concentration of DMSO was 0.1% (v/v)), and the plates were incubated at 37° C./5% CO2 for 16-18 hrs. Luciferase activity in the conditioned supernatants was determined with NanoGlo® assay reagents (Promega, Cat. #N1130).

[3] = Table 20, read-out: Avg ROR γt/5x IC5

| Structure (SMILES) | Ki [1] [nM] | IC50 ([2]; read-out: Avg ROR γt/5x IC50) [nM] | IC50 [2, 3] [nM] |
| --- | --- | --- | --- |
| CCc1c2ccc(C(=O)N[C@@H](CO)c3ccc(S(=O)(=O)CC)cc3)cc2nn1C[C@H]1CC[C@H](C(F)(F)F)CC1 [Hy3A-5, 3-ethyl-N-((R)-1-(4-(ethylsulfonyl)phenyl)-2-hydroxyethyl)-2-(((1r,4R)-4-(trifluoromethyl)cyclohexyl)methyl)-2H-indazole-6-carboxamide] | < 100 | < 100 | – |
| CC[C@@H]1CN(c2ncc(Cl)cn2)Cc2cc(C(=O)N[C@@H](CO)c3ccc(S(=O)(=O)CC)cc3)ccc21 (single isomer, unassigned) [Hy7-6.1] | < 100 | – | > 1000 |
| CCC1c2ccc(C(=O)NC(CO)c3ccc(S(=O)(=O)CC)cc3)cc2CCN1CC1CCC(C(F)(F)F)CC1 (single isomer, unassigned) [Hy2A-28.2] | < 100 | 100 to 1000 | – |
| CCS(=O)(=O)c1ccc([C@H](CO)NC(=O)c2ccc3c(OC[C@H]4CC[C@H](C(F)(F)F)CC4)nc(OC)cc3c2)cc1 [Hy1A-23, N-((R)-1-(4-(ethylsulfonyl)phenyl)-2-hydroxyethyl)-3-methoxy-1-(((1r,4R)-4-(trifluoromethyl)cyclohexyl)methoxy)isoquinoline-6-carboxamide] | < 100 | < 100 | – |
| CC[C@@H]1CN(c2ncc(-c3ncco3)cn2)Cc2cc(C(=O)N[C@@H](CO)c3ccc(S(=O)(=O)CC)cc3)ccc21 (single isomer, unassigned) [Hy7-33.1] | < 100 | – | < 100 |
| CCS(=O)(=O)c1ccc([C@H](CO)NC(=O)c2ccc3c(OC4CCN(CC(F)(F)F)CC4)nc(C)cc3c2)cc1 [Hy1A-17, (R)-N-(1-(4-(ethylsulfonyl)phenyl)-2-hydroxyethyl)-3-methyl-1-((1-(2,2,2-trifluoroethyl)piperidin-4-yl)oxy)isoquinoline-6-carboxamide] | < 100 | > 1000 | – |
| CCOC(=O)c1cnc(N2Cc3cc(C(=O)N[C@@H](CO)c4ccc(S(=O)(=O)CC)cc4)ccc3[C@H](CC)C2)nc1 (single isomer, unassigned) [Hy7-34.1] | < 100 | – | < 100 |
| CC[C@H]1CN(c2ncc(C(F)(F)F)cn2)Cc2cc(C(=O)NCc3ccc(S(=O)(=O)CC)cn3)ccc21 (single isomer, unassigned) [Hy7-10.1] | < 100 | – | < 100 |

More lines, now with the values ahead:

| Ki [1] [nM] | IC50 ([2]; read-out: Avg ROR γt/5x IC50) [nM] | IC50 [2, 3] [nM] | Structure (SMILES) |
| --- | --- | --- | --- |
| < 100 | 100 to 1000 | – | CCS(=O)(=O)c1ccc(CNC(=O)c2ccc3c(c2)CCN(Cc2ncc(Br)cn2)[C@H]3C(C)C)cc1 (single isomer, unassigned) [Hy2A-26.1] |
| < 100 | – | 100 to 1000 | CC[C@H]1CN(c2ccc(C(F)(F)F)cc2)C(=O)c2cc(C(=O)NCc3ccc(S(=O)(=O)CC)cc3)ccc21 (single isomer, unassigned) [Hy7-12.2] |
| < 100 | – | > 1000 | CCS(=O)(=O)c1ccc(CNC(=O)c2ccc3c(c2)CN(c2nccc(C(F)(F)F)n2)C[C@@H]3C(C)C)cc1 (single isomer, unassigned) [Hy7-14.2] |
| < 100 | – | < 100 | CC[C@@H]1CN(c2ncc(-c3cccc(OC)n3)cn2)Cc2cc(C(=O)NCc3ccc(S(=O)(=O)CC)cc3)ccc21 (single isomer, unassigned) [Hy7-20.1] |
| < 100 | – | 100 to 1000 | CCS(=O)(=O)c1ccc(CNC(=O)c2ccc3c(c2)CN(c2ncc(C4CC4)cn2)C[C@H]3C(C)C)cc1 (single isomer, unassigned) [Hy7-4.1] |
| < 100 | 100 to 1000 | – | CCS(=O)(=O)c1ccc(C(C)NC(=O)c2ccc3c(c2)CCN(Cc2cnc(C)cn2)C3C(C)C)cc1 (racemic) [Hy2A-18, N-(1-(4-(ethylsulfonyl)phenyl)ethyl)-1-isopropyl-2-((5-methylpyrazin-2-yl)methyl)-1,2,3,4-tetrahydroisoquinoline-6-carboxamide] |
| < 100 | < 100 | – | CCS(=O)(=O)c1ccc(CNC(=O)c2ccc3c(c2)CCN(Cc2ccc(C#N)cn2)[C@H]3C(C)C)cc1 (single isomer, unassigned) [Hy2A-16.1] |
